Experimental data: PubChem BioAssay (NCI)
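GI50 marks 50% less growth. Definition used: TGI = concentration required for complete inhibition of growth.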

Assays:
Test in all cases: inhibition of tumour cell growth, NCI panel, 384-well format
M14 melanoma = tested on: M14 melanoma
UO-31 renal = tested on: UO-31 renal
MOLT-4 leukemia = tested on: MOLT-4 leukemia
CCRF-CEM leukemia = tested on: CCRF-CEM leukemia
MALME-3M melanoma = tested on: MALME-3M melanoma
HL-60(TB) leukemia = tested on: HL-60(TB) leukemia
ACHN renal = tested on: ACHN renal
K-562 leukemia = tested on: K-562 leukemia
HS 578T breast = tested on: HS 578T breast
SF-539 CNS = tested on: SF-539 CNS
SK-MEL-28 melanoma = tested on: SK-MEL-28 melanoma
OVCAR-3 ovarian = tested on: OVCAR-3 ovarian
OVCAR-8 ovarian = tested on: OVCAR-8 ovarian
MCF7 breast = tested on: MCF7 breast
HT29 colon = tested on: HT29 colon
MDA-MB-468 breast = tested on: MDA-MB-468 breast
BT-549 breast = tested on: BT-549 breast
COLO 205 colon = tested on: COLO 205 colon
SNB-75 CNS = tested on: SNB-75 CNS
NCI-H522 lung = tested on: NCI-H522 lung
LOX IMVI melanoma = tested on: LOX IMVI melanoma
SF-268 CNS = tested on: SF-268 CNS
HCT-116 colon = tested on: HCT-116 colon
SNB-19 CNS = tested on: SNB-19 CNS
RXF 393 renal = tested on: RXF 393 renal
UACC-62 melanoma = tested on: UACC-62 melanoma
SF-295 CNS = tested on: SF-295 CNS
IGROV1 ovarian = tested on: IGROV1 ovarian
PC-3 prostate = tested on: PC-3 prostate
SK-MEL-5 melanoma = tested on: SK-MEL-5 melanoma
DU-145 prostate = tested on: DU-145 prostate
RPMI-8226 leukemia = tested on: RPMI-8226 leukemia
SN12C renal = tested on: SN12C renal
NCI-H322M lung = tested on: NCI-H322M lung
OVCAR-4 ovarian = tested on: OVCAR-4 ovarian
NCI/ADR-RES ovarian = tested on: NCI/ADR-RES ovarian
A498 renal = tested on: A498 renal
NCI-H460 NSCLC = tested on: NCI-H460 NSCLC
SR leukemia = tested on: SR leukemia
HOP-92 NSCLC = tested on: HOP-92 NSCLC
UACC-257 melanoma = tested on: UACC-257 melanoma
786-0 renal = tested on: 786-0 renal
HOP-62 NSCLC = tested on: HOP-62 NSCLC
HCC-2998 colon = tested on: HCC-2998 colon
NCI-H23 lung = tested on: NCI-H23 lung
A549 NSCLC = tested on: A549 NSCLC
T-47D breast = tested on: T-47D breast

Molecule `CC(=O)N1CCC(Nc2cc(C(=O)NC[C@H](O)CN3CCc4ccccc4C3)ncn2)CC1` has a GI50 (M14 melanoma) of over 100 µM, a TGI (M14 melanoma) of over 100 µM and a GI50 (UO-31 renal) of over 100 µM. The TGI (UO-31 renal) was over 100 µM, the GI50 (MOLT-4 leukemia) was under 0.0138 µM and the TGI (MOLT-4 leukemia) was 0.0854 µM. It also gave a GI50 (CCRF-CEM leukemia) of over 100 µM, a TGI (CCRF-CEM leukemia) of over 100 µM and a GI50 (MALME-3M melanoma) of over 100 µM. The TGI (MALME-3M melanoma) was over 100 µM, the GI50 (HL-60(TB) leukemia) was over 100 µM and the TGI (HL-60(TB) leukemia) was over 100 µM. For the same molecule, the GI50 (ACHN renal) was over 100 µM, the TGI (ACHN renal) was over 100 µM and the GI50 (K-562 leukemia) was over 100 µM. For the same molecule, the TGI (K-562 leukemia) was over 100 µM, the GI50 (HS 578T breast) was over 100 µM and the TGI (HS 578T breast) was over 100 µM. For the same molecule, the GI50 (SF-539 CNS) was over 100 µM, the TGI (SF-539 CNS) was over 100 µM and the GI50 (SK-MEL-28 melanoma) was over 100 µM. For the same molecule, the TGI (SK-MEL-28 melanoma) was over 100 µM, the GI50 (OVCAR-3 ovarian) was over 100 µM and the TGI (OVCAR-3 ovarian) was over 100 µM. For the same molecule, the GI50 (OVCAR-8 ovarian) was over 100 µM, the TGI (OVCAR-8 ovarian) was over 100 µM and the GI50 (MCF7 breast) was over 36.8 µM. The TGI (MCF7 breast) was over 100 µM, the GI50 (HT29 colon) was over 100 µM and the TGI (HT29 colon) was over 100 µM. For the same molecule, the GI50 (MDA-MB-468 breast) was 29.5 µM, the TGI (MDA-MB-468 breast) was over 100 µM and the GI50 (BT-549 breast) was over 100 µM. The TGI (BT-549 breast) was over 100 µM, the GI50 (COLO 205 colon) was over 100 µM and the TGI (COLO 205 colon) was over 100 µM. For the same molecule, the GI50 (SNB-75 CNS) was over 100 µM, the TGI (SNB-75 CNS) was over 100 µM and the GI50 (NCI-H522 lung) was over 100 µM. For the same molecule, the TGI (NCI-H522 lung) was over 100 µM, the GI50 (LOX IMVI melanoma) was over 100 µM and the TGI (LOX IMVI melanoma) was over 100 µM. For the same molecule, the GI50 (SF-268 CNS) was over 100 µM, the TGI (SF-268 CNS) was over 100 µM and the GI50 (HCT-116 colon) was over 100 µM. For the same molecule, the TGI (HCT-116 colon) was over 100 µM, the GI50 (SNB-19 CNS) was over 100 µM and the TGI (SNB-19 CNS) was over 100 µM. The GI50 (RXF 393 renal) was over 100 µM, the TGI (RXF 393 renal) was over 100 µM and the GI50 (UACC-62 melanoma) was over 100 µM. It also gave a TGI (UACC-62 melanoma) of over 100 µM, a GI50 (SF-295 CNS) of over 100 µM and a TGI (SF-295 CNS) of over 100 µM. The GI50 (IGROV1 ovarian) was over 100 µM, the TGI (IGROV1 ovarian) was over 100 µM and the GI50 (PC-3 prostate) was over 100 µM. The TGI (PC-3 prostate) was over 100 µM, the GI50 (SK-MEL-5 melanoma) was over 100 µM and the TGI (SK-MEL-5 melanoma) was over 100 µM. The GI50 (DU-145 prostate) was over 100 µM, the TGI (DU-145 prostate) was over 100 µM and the GI50 (RPMI-8226 leukemia) was 61.6 µM. The TGI (RPMI-8226 leukemia) was over 100 µM, the GI50 (SN12C renal) was over 100 µM and the TGI (SN12C renal) was over 100 µM. It also gave a GI50 (NCI-H322M lung) of over 100 µM, a TGI (NCI-H322M lung) of over 100 µM and a GI50 (OVCAR-4 ovarian) of 4.44 µM. It also gave a TGI (OVCAR-4 ovarian) of over 100 µM, a GI50 (NCI/ADR-RES ovarian) of over 100 µM and a TGI (NCI/ADR-RES ovarian) of over 100 µM. For the same molecule, the GI50 (A498 renal) was over 100 µM, the TGI (A498 renal) was over 100 µM and the GI50 (NCI-H460 NSCLC) was 1.9 µM. The TGI (NCI-H460 NSCLC) was over 100 µM, the GI50 (SR leukemia) was 0.183 µM and the TGI (SR leukemia) was over 100 µM. It also gave a GI50 (HOP-92 NSCLC) of over 28.1 µM, a TGI (HOP-92 NSCLC) of over 100 µM and a GI50 (UACC-257 melanoma) of over 100 µM. For the same molecule, the TGI (UACC-257 melanoma) was over 100 µM, the GI50 ([…]-0 renal) was over 100 µM and the TGI (786-0 renal) was over 100 µM. The GI50 (HOP-62 NSCLC) was over 100 µM, the TGI (HOP-62 NSCLC) was over 100 µM and the GI50 (HCC-2998 colon) was over 100 µM. It also gave a TGI (HCC-2998 colon) of over 100 µM, a GI50 (NCI-H23 lung) of over 100 µM and a TGI (NCI-H23 lung) of over 100 µM. The GI50 (A549 NSCLC) was over 100 µM, the TGI (A549 NSCLC) was over 100 µM and the GI50 (T-47D breast) was 0.658 µM. The TGI (T-47D breast) was over 100 µM.
